Source: patent publication US5633277A, “Sulfonamide aminomethylene derivatives as immunosuppressants” (Miles Inc., priority 1995, dated 1997)
Values joined by “and” are separate entries in the source; they are usually repeats but may differ in a detail not shown here. Equal entries are not always repeated.

Key:
FKBP = FKBP (Homo sapiens, UniProt P62942); assay: PPIase Inhibition Assay; type: biochemical
Description: 1) Inhibition of PPlase Activity
This assay follows in principle the procedure described in Kofron et al., 1991, Biochemistry 30:6127. The three main reagents used are PPIase, a substrate for PPIase, and a selected inhibitor compound of the present invention. The basic principle behind this assay is the conversion of the cis isomer of the substrate to the trans form, which conversion is catalyzed by PPIase. Essentially, inhibition of this PPIase activity is measured for the selected compounds. A peptide chymotrypsin substrate containing a proline in the P2 position is only cleaved by chymotrypsin when the Phe-Pro bond is in the trans isomeric configuration. In the presence of excess chymotrypsin, all of the trans peptide isomers are cleaved within approximately five seconds, leaving only cis forms.
The cis peptide will spontaneously convert to the trans isomer at a slow rate. The cis to trans conversion is catalyzed by isomerases at a much faster rate than this spontaneous conversion. Proteins with PPIase activity are examples of such isomerases. After isomerization, the peptide is cleaved by chymotrypsin releasing p-nitroaniline which can be monitored at 390 nm. The rate of release is then calculated using a first order rate plus offset equation utilizing the ENZFITTER program (Leatherbarrow, BIOSOFT, Cambridge, United Kingdom).
In a plastic cuvette are added 950 ul of ice cold assay buffer (25 mM HEPES, pH 7.8, 100 mM NaCl), 10 uL of FKBP (2.5 uM in 10 mM Tris-Cl pH 7.5,100 mM NACl, 1 mM dithiothreitol), 25 ul of chymotrypsin (50 mg/ml in 1 mM HCl) and 10 ul of the test compound at various concentrations in dimethyl sulphoxide. The reaction is initiated by addition of 5 ul of substrate (Succinyl-Ala-Phe-Pro-Phe-para-nitroanilide, 5 mg/ml in 235 mM LiCl in trifluoroethanol).
The absorbance at 390 nm versus time is monitored for 90 sec using a Beckman DU70 spectrophotometer. The absorbance versus time data files are transferred to an IBM XT computer and the rate constants determined using the commercial Enzfitter program. For each set of data, the uncatalyzed rate of conversion is measured and the uninhibited enzymatic rate determined. The data are expressed as % Inhibition and are calculated as follows: [formula] where kobs is the rate in the presence of a selected test compound, kuncat is the rate in the absence of enzyme, and kuninh is the rate in the presence of enzyme and absence of inhibitor. Data are plotted as percent inhibition versus concentration of inhibitor. The values of the concentration of inhibitor required for 50% inhibition of enzyme activity (IC50) were determined by nonlinear least squares regression analysis.

NF-AT = NF-AT Inhibition Assay (NF-AT directed β-galactosidase expression in stimulated FGL-5 cells); type: cell-based; details: phorbol ester and ionomycin stimulated, 16-18 hours
Description: Stimulation of T-cells leads to the appearance of several transcription factors, including one designated "NF-AT". These factors are involved in regulation of gene expression required for immunologic activation. Some of these transcription factors appear to have functions in a wide variety of cell types. By contrast, NF-AT is found primarily in T-cells and its role is restricted to early gene activation.
Inhibition of NF-AT activity is measured using FGL-5 cells. FGL-5 is a cloned line of stably transfected Jurkat T-cells that contain a construct in which three tandem copies of the NF-AT DNA binding site direct transcription of the lacZ gene, encoding β-galactosidase (Fiering et al., 1990, Genes & Development 4:1823). When these cells are stimulated with phorbol esters which activate protein kinase C and calcium ionophore to raise the intracellular calcium concentration, transcriptionally active NF-AT is produced. In T-cells, this normally leads to the expression of IL-2, T-cell growth factor. However, in FGL-5 cells NF-AT activation leads to the production of β-galactosidase which can be detected using an appropriate substrate.
NF-AT Inhibition Assay Directed β-Galactosidase Expression
This assay was performed essentially as described (Bierer et al., 1990, Proc. Natl. Acad. Sci. 87:9231). FGL-5 cells were maintained in medium consisting of RPMI-1640 with 10% FBS, 2 mM L-glutamine, 1% Penicillin- Streptomycin and 15 mM HEPES buffer. The assays were done with exponentially growing cells whose density was not greater than 0.5 million cells/ml. The cells were resuspended to 3 million cells/ml in medium and 0. 1 mi was added to wells of a 96-well plate.
The compounds of the present invention were dissolved in either ethanol or dimethylsulfoxide at 10 mM and 0.05 ml/well of various dilutions in medium were added to cells in duplicate wells. Treatment controls consisted of duplicate wells to which 0.05 ml/well of either medium, ethanol or dimethylsulfoxide was added. The ethanol and dimethyl sulfoxide were at the same concentration as was used for the compounds. Cells were incubated with compounds at room temperature for 10-15 minutes. Phorbol dibutyrate (Sigma) and Ionomycin (Calbiochem) were dissolved at 50 μg g/mi and 2 mM, respectively and stored at -70° C.
FGL-5 cells were stimulated by diluting these reagents with medium to 200 ng/ml and 8 μM, respectively and adding of 0.05 ml/well. For unstimulated cell controls, 0.05 mi/well of medium was added to duplicate wells. The plates were incubated overnight (16-18 hours) at 37° C. in a humidified atmosphere of 5% CO2 and air. β-galactosidase activity was measured as the fluorescence generated by the cleavage of 4-methyl umbelliferyl-β-D-galactoside (Sigma) at the β-galactoside bond. After overnight incubation, the cells were centrifuged at 500×g for 3 minutes in the 96-well plates and washed 3 times with PBS. The cells were then resuspended in 0. 18 mi/well of reaction medium containing 100 mM sodium phosphate buffer, pH 7.0, 10 mM potassium chloride, 1 mM magnesium sulfate, 0.1% Triton X-100 (Pierce, Rockford, Ill.), and 0.5 mM 4-methylumbelliferyl-β-D- galactoside.
The fluorescence at 460 nm using 355 nm excitation was measured at intervals over 1-2 hours (during which fluorescence increased linearly with time) with a LS50 Luminescence Spectrometer (Perkin Elmer).
The percent inhibition by each concentration of the compounds was calculated as: [formula]
The values of the concentration of compounds required for 50% inhibition (IC50) were determined by linear regression analysis of the percent inhibition at various compound concentrations.

Sequence of FKBP (P62942 whole entry): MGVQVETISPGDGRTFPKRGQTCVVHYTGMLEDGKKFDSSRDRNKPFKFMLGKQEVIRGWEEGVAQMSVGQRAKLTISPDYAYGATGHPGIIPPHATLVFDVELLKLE

Compound	IC50 (FKBP) [µM]	IC50 (NF-AT)
CC(C)C[C@@H](CN1CCC[C@H]1C(=O)NCCCCc1ccccc1)NS(=O)(=O)CC12CCC(CC1=O)C2(C)C (single isomer, unassigned) [Example 7]	> 5	> 15 µM
CC(C)C[C@@H](CN1CCC[C@H]1C(=O)NCCCCc1ccccc1)NS(C)(=O)=O [Example 1, 1-[2-(S)-Methanesulfonylamino-4-methylpentyl]-L-proline 4-Phenylbutylamide]	3.5	≤ 11 µM and 9 µM
Cc1ccc(S(=O)(=O)N[C@@H](CC(C)C)CN2CCC[C@H]2C(=O)NCCCCc2ccccc2)cc1 [Example 2, 1-[2-(S)-(Toluene-4-sulfonylamino)-4-methylpentyl]-L-proline 4-Phenylbutylamide]	> 5	27 µM
CC(C)C[C@@H](CN1CCC[C@H]1C(=O)NCCCCc1ccccc1)NS(=O)(=O)c1cccc2cccnc12 [Example 3, 1-[2-(S)-(Quinoline-8-sulfonylamino)-4-methylpentyl]-L-proline 4-Phenylbutylamide]	> 5	≤ 11 µM and 11 µM
CC(=O)Nc1nc(C)c(S(=O)(=O)N[C@@H](CC(C)C)CN2CCC[C@H]2C(=O)NCCCCc2ccccc2)s1 [Example 4, 1-[2-(S)-(2-Acetylamino-4-methyl-S-thiazolesulfonylamino)-4-methylpentyl]-L -proline 4-Phenylbutylamide]	> 5	24 µM
CC(C)C[C@@H](CN1CCC[C@H]1C(=O)NCCCCc1ccccc1)NS(=O)(=O)c1cccs1 [Example 5, 1-[2-(S)-(Thiophene-2-sulfonylamino)-4-methylpentyl]-L-proline 4-Phenylbutylamide]	> 5	24 µM
CC(C)C[C@@H](CN1CCC[C@H]1C(=O)NCCCCc1ccccc1)NS(=O)(=O)/C=C/c1ccccc1 [Example 6, 1-[2-(S)-(2-phenyl-ethenesulfonylamino)-4-methylpentyl]-L-proline 4-Phenylbutylamtde]	> 5	> 15 µM
CC(C)C[C@@H](CN1CCC[C@H]1C(=O)NCCCCc1ccccc1)NS(=O)(=O)c1ccc(-c2ccon2)s1 [Example 8, 1-[2-(S)-(5 - [Isoxazol-25-yl]-thiophene-2-sulfonylamino)-4-methylpentyl]-L-proline 4-Phenylbutylamide]	> 5	> 15 µM
CC(C)C[C@@H](CN1CCC[C@H]1C(=O)NCCCCc1ccccc1)NS(=O)(=O)c1c(C(C)C)cc(C(C)C)cc1C(C)C [Example 10, 1-[2-(S)-(2',4',6'-Triisopropylbenzenesulfonylamino)-4-methylpentyl]-L-proline 4-Phenylbutylamide]	> 5	> 15 µM
CC[C@H](C)[C@H](NC(=O)[C@@H]1CCCCN1C[C@@H](NS(C)(=O)=O)[C@@H](C)CC)C(=O)NCc1ccccc1 [Example 11]	> 5	> 15 µM
